Assay results reported in patent US10407383B2, “Cyclopentene and cyclopentadiene compounds for controlling invertebrate pests” (BASF SE, priority 2014, dated 2019).

Legend:
Format in all cases: in vivo
[1] = system: boll weevil (Anthonomus grandis); assay: Boll weevil (Anthonomus grandis), insect diet with eggs in 24-well plates; conditions: 120 h, egg and larval mortality, 5 days, read-out: mortality in comparison with untreated controls
Protocol: B.4 Boll Weevil (Anthonomus grandis)
For evaluating control of boll weevil (Anthonomus grandis) the test unit consisted of 24-well-microtiter plates containing an insect diet and 20-30 A. grandis eggs.
The compounds were formulated using a solution containing 75% v/v water and 25% v/v DMSO. Different concentrations of formulated compounds were sprayed onto the insect diet at 20 μl, using a custom built micro atomizer, at two replications.
After application, microtiter plates were incubated at about 23±1° C. and about 50±5% relative humidity for 5 days. Egg and larval mortality was then visually assessed.

[2] = system: vetch aphid (Megoura viciae); assay: Vetch aphid (Megoura viciae), contact or systemic, broad bean leaf disks in 24-well plates; conditions: foliar, 120 h, adult aphids on sprayed leaf disks, 5 days, read-out: mortality in comparison with untreated controls
Protocol: B.2 Vetch Aphid (Megoura viciae)
For evaluating control of vetch aphid (Megoura viciae) through contact or systemic means the test unit consisted of 24-well-microtiter plates containing broad bean leaf disks.
The compounds were formulated using a solution containing 75% v/v water and 25% v/v DMSO. Different concentrations of formulated compounds were sprayed onto the leaf disks at 2.5 μl, using a custom built micro atomizer, at two replications.
After application, the leaf disks were air-dried and 5-8 adult aphids placed on the leaf disks inside the microtiter plate wells. The aphids were then allowed to suck on the treated leaf disks and incubated at about 23±1° C. and about 50±5% relative humidity for 5 days. Aphid mortality and fecundity was then visually assessed.

[3] = system: green peach aphid (Myzus persicae); assay: Green peach aphid (Myzus persicae), systemic, 96-well plates with liquid artificial diet under membrane; conditions: 72 h, adult aphids on treated diet, 3 days, read-out: mortality in comparison with untreated controls
Description: B.1 Green Peach Aphid (Myzus persicae)
For evaluating control of green peach aphid (Myzus persicae) through systemic means the test unit consisted of 96-well-microtiter plates containing liquid artificial diet under an artificial membrane.
The compounds were formulated using a solution containing 75% v/v water and 25% v/v DMSO. Different concentrations of formulated compounds were pipetted into the aphid diet, using a custom built pipetter, at two replications.
After application, 5-8 adult aphids were placed on the artificial membrane inside the microtiter plate wells. The aphids were then allowed to suck on the treated aphid diet and incubated at about 23±1° C. and about 50±5% relative humidity for 3 days. Aphid mortality and fecundity was then visually assessed.

[4] = system: Red Spider Mite (Tetranychus kanzawai); assay: Red spider mite (Tetranychus kanzawai), sprayed potted cowpea beans; conditions: 72 hours after treatment, read-out: mortality in comparison with untreated controls
Protocol: B.9 Red Spider Mite (Tetranychus kanzawai)
The active compound was dissolved at the desired concentration in a mixture of 1:1 (vol:vol) distilled water:acetone. Surfactant (Kinetic HV) was added at a rate of 0.01% (vol/vol). The test solution was prepared at the day of use.
Potted cowpea beans of 4-5 days of age were cleaned with tap water and sprayed with 1-2 ml of the test solution using air driven hand atomizer. The treated plants were allowed to air dry and afterwards inoculated with 30 or more mites by clipping a cassava leaf section from rearing population. Treated plants were placed inside a holding room at about 25-27° C. and about 50-60% relative humidity. Percent mortality was assessed 72 hours after treatment.

[5] = system: Orchid Thrips (Dichromothrips Corbetti); assay: Orchid thrips (Dichromothrips corbetti), floral-immersion technique; conditions: adult thrips, 72 hours after treatment, read-out: mortality in comparison with untreated controls
Protocol: B.7 Orchid Thrips (Dichromothrips Corbetti)
Dichromothrips corbetti adults used for bioassay were obtained from a colony maintained continuously under laboratory conditions. For testing purposes, the test compound was diluted in a 1:1 mixture of acetone:water (vol:vol), plus Kinetic HV at a rate of 0.01% v/v.
Thrips potency of each compound was evaluated by using a floral-immersion technique. All petals of individual, intact orchid flowers were dipped into treatment solution and allowed to dry in Petri dishes. Treated petals were placed into individual re-sealable plastic along with about 20 adult thrips. All test arenas were held under continuous light and a temperature of about 28° C. for duration of the assay. After 3 days, the numbers of live thrips were counted on each petal. The percent mortality was recorded 72 hours after treatment.

[6] = system: Diamond Back Moth (Plutella Xylostella); assay: Diamond back moth (Plutella xylostella), cabbage leaf dip, 3rd instar larvae; conditions: foliar, 72 hours after treatment, read-out: mortality in comparison with untreated controls
Protocol: B.6 Diamond Back Moth (Plutella Xylostella)
The active compound was dissolved at the desired concentration in a mixture of 1:1 (vol:vol) distilled water:aceteone. Surfactant (Kinetic HV) was added at a rate of 0.01% (vol/vol). The test solution was prepared at the day of use.
Leaves of cabbage were dipped in test solution and air-dried. Treated leaves were placed in petri dishes lined with moist filter paper and inoculated with ten 3rd instar larvae. Mortality was recorded 72 hours after treatment. Feeding damages were also recorded using a scale of 0-100%.

[7] = system: Mediterranean fruitfly (Ceratitis capitata); assay: Mediterranean fruitfly (Ceratitis capitata), insect diet with eggs in microtiter plates; conditions: 120 h, egg and larval mortality, 5 days, read-out: mortality in comparison with untreated controls
Protocol: B.5 Mediterranean Fruitfly (Ceratitis capitata)
For evaluating control of Mediterranean fruitfly (Ceratitis capitata) the test unit consisted of microtiter plates containing an insect diet and 50-80 C. capitata eggs.
The compounds were formulated using a solution containing 75% v/v water and 25% v/v DMSO. Different concentrations of formulated compounds were sprayed onto the insect diet at 5 μl, using a custom built micro atomizer, at two replications.
(§1) After application, microtiter plates were incubated at about 28±1° C. and about 80±5% relative humidity for 5 days. Egg and larval mortality was then visually assessed.

[8] = system: Rice Green Leafhopper (Nephotettix virescens); assay: Rice green leafhopper (Nephotettix virescens), sprayed potted rice seedlings; conditions: adults, after 72 hours, read-out: mortality in comparison with untreated controls
Protocol: B.8 Rice Green Leafhopper (Nephotettix virescens)
Rice seedlings were cleaned and washed 24 hours before spraying. The active compounds were formulated in 1:1 acetone:water (vol:vol), and 0.01% vol/vol surfactant (Kinetic HV) was added. Potted rice seedlings were sprayed with 5-6 ml test solution, air dried, covered with Mylar cages and inoculated with 10 adults. Treated rice plants were kept at about 28-29° C. and relative humidity of about 50-60%. Percent mortality was recorded after 72 hours.

[9] = system: tobacco budworm (Heliothis virescens); assay: Tobacco budworm (Heliothis virescens), insect diet with eggs in 96-well plates; conditions: 120 h, egg and larval mortality, 5 days, read-out: mortality in comparison with untreated controls
Protocol: B.3 Tobacco Budworm (Heliothis virescens)
For evaluating control of tobacco budworm (Heliothis virescens) the test unit consisted of 96-well-microtiter plates containing an insect diet and 15-25 H. virescens eggs.
The compounds were formulated using a solution containing 75% v/v water and 25% v/v DMSO. Different concentrations of formulated compounds were sprayed onto the insect diet at 10 μl, using a custom built micro atomizer, at two replications.
as §1

O=C(O)c1ccc(C2=CC(c3cc(Cl)cc(Cl)c3)(C(F)(F)F)CC2)cc1Cl (stereo not shown) [Compound 1-12, 2-Chloro-4-[3-(3,5-dichlorophenyl)-3-(trifluoromethyl)cyclopenten-1-yl]benzoic acid]
≥ 75%: mortality at 2500 ppm [1]

O=C(NC1CS(=O)(=O)C1)c1ccc(C2=CC(c3cc(Cl)cc(Cl)c3)(C(F)(F)F)C=C2)cc1Cl (stereo not shown) [Compound 2-12, 2-Chloro-4-[3-(3,5-dichlorophenyl)-3-(trifluoromethyl)cyclopenta-1,4-dien-1-yl]-N-(1,1-dioxothietan-3-yl)benzamide]
≥ 75%: mortality at 2500 ppm [2] | mortality at 2500 ppm [3] | mortality at 500 ppm [4] | mortality at 500 ppm [5] | mortality at 500 ppm [6] | mortality at 2500 ppm [7] | mortality at 2500 ppm [1] | mortality at 500 ppm [8] | mortality at 2500 ppm [9]

O=C(NC1CS(=O)(=O)C1)c1ccc(C2=CC(c3cc(Cl)cc(Cl)c3)(C(F)(F)F)CC2)cc1Cl (stereo not shown) [Compound 1-11, 2-Chloro-4-[3-(3,5-dichlorophenyl)-3-(trifluoromethyl)cyclopenten-1-yl]-N-(1,1-dioxothietan-3-yl)benzamide]
≥ 75%: mortality at 2500 ppm [2] | mortality at 2500 ppm [3] | mortality at 500 ppm [4] | mortality at 500 ppm [5] | mortality at 500 ppm [6] | mortality at 2500 ppm [7] | mortality at 2500 ppm [1] | mortality at 500 ppm [8] | mortality at 2500 ppm [9]

O=C(NC1CS(=O)(=O)C1)c1ccc(C2=CCC(c3cc(Cl)cc(Cl)c3)(C(F)(F)F)C2)cc1Cl (stereo not shown) [Compound 3-9, 2-Chloro-4-[4-(3,5-dichlorophenyl)-4-(trifluoromethyl)cyclopenten-1-yl]-N-(1,1-dioxothietan-3-yl)benzamide]
≥ 75%: mortality at 2500 ppm [2] | mortality at 2500 ppm [3] | mortality at 500 ppm [4] | mortality at 500 ppm [5] | mortality at 500 ppm [6] | mortality at 2500 ppm [7] | mortality at 2500 ppm [1] | mortality at 500 ppm [8] | mortality at 2500 ppm [9]

O=C(O)c1ccc(C2=CCC(c3cc(Cl)cc(Cl)c3)(C(F)(F)F)C2)cc1Cl (stereo not shown) [Compound 3-11, 2-Chloro-4-[4-(3,5-dichlorophenyl)-4-(trifluoromethyl)cyclopenten-1-yl]benzoic acid]
≥ 75%: mortality at 2500 ppm [1]

COC(=O)c1ccc(C2=CC(c3cc(Cl)cc(Cl)c3)(C(F)(F)F)CC2)cc1Cl (stereo not shown) [Compound 1-13, Methyl 2-chloro-4-[3-(3,5-dichlorophenyl)-3-(trifluoromethyl)cyclopenten-1-yl]-benzoate]
≥ 75%: mortality at 500 ppm [6] | mortality at 2500 ppm [1]
